Measured values as given in patent publication US11628228B2, “99mTc-labeled isonitrile-containing glucose derivative and preparation method and use thereof” (Beijing Shihong Pharmaceutical Research Center, priority 2017, dated 2023).

Assays:
[1] = Determination of the lipid-water partition coefficient (n-octanol/PBS); assay type: physicochemical
Method: One hundred μL of the labeled substance solution (50 μCi) diluted with normal saline is placed into a 2 mL centrifuge tube, and then 800 μL of n-octanol and 700 μL of PBS are added to the centrifuge tube, which is subsequently covered with a cap. The centrifuge tube is vortexed for 3 minutes (2500 r/minute), allowed to stand until the solution is layered, and centrifuged in a centrifuge for 3 minutes (3000 r/minute). Three samples of the upper organic phase and three samples of the lower aqueous phase are taken, each 100 μL, and detected in a γ-counter for the radioactive counts of the organic and aqueous phases, respectively.

S180-bearing mice = assay: Bio-distribution in tumor-bearing mice; assay type: in vivo; conditions: for Blood uptake / Bone uptake / Heart uptake / Kidney uptake / Liver uptake / Lung uptake / Muscle uptake / Small intestine uptake / Spleen uptake / Stomach uptake / Tumor uptake / Tumor/blood ratio / Tumor/muscle ratio: S180-bearing mice, tail vein; for Tumor/liver ratio: tumor-bearing mice, 0.5 hour after injection
Method: The labeled solution (0.1 mL, 74 KBq) is injected into mice through the tail vein, and the injection time is recorded. Then the mice were killed by cervical dislocation at different time phases (30 minutes, 60 minutes, and 120 minutes), five mice for each time phase, and the organs of interest such as heart, liver, lung, kidney, spleen, stomach, muscle, blood and tumor are taken out after dissection, and measured with a γ-counter for the radioactive count of each organ. The uptake value of each organ is obtained by calculation based on the mass of the organ (with % ID/g as the unit).

tumor-bearing mice = assay: SPECT imaging in tumor-bearing mice; assay type: in vivo; conditions: 0.2 mL, 700 μCi tail vein, imaging 1 hour later
Method: The prepared [^99mTc-(CN3DG)6]^+ or [^99mTc-(CN5DG)6]^+ (0.2 mL, 700 μCi) is injected into tumor-bearing mice through tail vein, and SPECT imaging is performed 1 hour later.

O=C(CCCCC[N+]#[C][99Tc-5]([C]#[N+]CCCCCC(=O)NC1C(O)OC(CO)C(O)C1O)([C]#[N+]CCCCCC(=O)NC1C(O)OC(CO)C(O)C1O)([C]#[N+]CCCCCC(=O)NC1C(O)OC(CO)C(O)C1O)([C]#[N+]CCCCCC(=O)NC1C(O)OC(CO)C(O)C1O)[C]#[N+]CCCCCC(=O)NC1C(O)OC(CO)C(O)C1O)NC1C(O)OC(CO)C(O)C1O (stereo not shown) [[^99mTc-(CN5DG)6]^+]
Log P (lipid-water partition coefficient) [1]: −3.57±0.35 | Blood uptake (S180-bearing mice; 30 min): 1.58 ± 0.15 % ID/g | Bone uptake (S180-bearing mice; 30 min): 0.72 ± 0.11 % ID/g | Heart uptake (S180-bearing mice; 30 min): 0.64 ± 0.12 % ID/g | Kidney uptake (S180-bearing mice; 30 min): 4.69 ± 0.76 % ID/g | Liver uptake (S180-bearing mice; 30 min): 0.61 ± 0.07 % ID/g | Lung uptake (S180-bearing mice; 30 min): 1.58 ± 0.18 % ID/g | Muscle uptake (S180-bearing mice; 30 min): 0.46 ± 0.05 % ID/g | Small intestine uptake (S180-bearing mice; 30 min): 0.74 ± 0.09 % ID/g | Spleen uptake (S180-bearing mice; 30 min): 0.51 ± 0.08 % ID/g | Stomach uptake (S180-bearing mice; 30 min): 0.50 ± 0.09 % ID/g | Tumor uptake (S180-bearing mice; 30 min): 1.83 ± 0.18 % ID/g | Tumor/blood ratio (S180-bearing mice; 30 min): 1.16 | Tumor/muscle ratio (S180-bearing mice; 30 min): 3.98 | Blood uptake (S180-bearing mice; 60 min): 0.55 ± 0.17 % ID/g | Bone uptake (S180-bearing mice; 60 min): 0.41 ± 0.15 % ID/g | Heart uptake (S180-bearing mice; 60 min): 0.41 ± 0.02 % ID/g | Kidney uptake (S180-bearing mice; 60 min): 2.68 ± 0.32 % ID/g | Liver uptake (S180-bearing mice; 60 min): 0.38 ± 0.08 % ID/g | Lung uptake (S180-bearing mice; 60 min): 0.59 ± 0.16 % ID/g | Muscle uptake (S180-bearing mice; 60 min): 0.27 ± 0.10 % ID/g | Small intestine uptake (S180-bearing mice; 60 min): 0.43 ± 0.07 % ID/g | Spleen uptake (S180-bearing mice; 60 min): 0.28 ± 0.07 % ID/g | Stomach uptake (S180-bearing mice; 60 min): 0.37 ± 0.14 % ID/g | Tumor uptake (S180-bearing mice; 60 min): 1.07 ± 0.21 % ID/g | Tumor/blood ratio (S180-bearing mice; 60 min): 1.94 | Tumor/muscle ratio (S180-bearing mice; 60 min): 3.96 | Blood uptake (S180-bearing mice; 120 min): 0.16 ± 0.02 % ID/g | Bone uptake (S180-bearing mice; 120 min): 0.15 ± 0.04 % ID/g | Heart uptake (S180-bearing mice; 120 min): 0.22 ± 0.04 % ID/g | Kidney uptake (S180-bearing mice; 120 min): 2.07 ± 0.13 % ID/g | Liver uptake (S180-bearing mice; 120 min): 0.34 ± 0.08 % ID/g | Lung uptake (S180-bearing mice; 120 min): 0.29 ± 0.06 % ID/g | Muscle uptake (S180-bearing mice; 120 min): 0.18 ± 0.03 % ID/g | Small intestine uptake (S180-bearing mice; 120 min): 0.22 ± 0.08 % ID/g | Spleen uptake (S180-bearing mice; 120 min): 0.17 ± 0.02 % ID/g | Stomach uptake (S180-bearing mice; 120 min): 0.35 ± 0.06 % ID/g | Tumor uptake (S180-bearing mice; 120 min): 0.75 ± 0.07 % ID/g | Tumor/blood ratio (S180-bearing mice; 120 min): 4.69 | Tumor/muscle ratio (S180-bearing mice; 120 min): 4.16 | Tumor/liver ratio (S180-bearing mice): 3.00 | SPECT imaging: aggregation at the tumor sites (tumor-bearing mice): evident aggregation at the tumor sites | SPECT imaging: concentration in kidney (tumor-bearing mice): relatively high concentration in kidney | SPECT imaging: uptake in other organs (tumor-bearing mice): relatively low

O=C(CCC[N+]#[C][99Tc-5]([C]#[N+]CCCC(=O)NC1C(O)OC(CO)C(O)C1O)([C]#[N+]CCCC(=O)NC1C(O)OC(CO)C(O)C1O)([C]#[N+]CCCC(=O)NC1C(O)OC(CO)C(O)C1O)([C]#[N+]CCCC(=O)NC1C(O)OC(CO)C(O)C1O)[C]#[N+]CCCC(=O)NC1C(O)OC(CO)C(O)C1O)NC1C(O)OC(CO)C(O)C1O (stereo not shown) [[^99mTc-(CN3DG)6]^+]
Log P (lipid-water partition coefficient) [1]: −4.01±0.17 | Blood uptake (S180-bearing mice; 30 min): 0.78 ± 0.16 % ID/g | Bone uptake (S180-bearing mice; 30 min): 0.27 ± 0.05 % ID/g | Heart uptake (S180-bearing mice; 30 min): 0.40 ± 0.07 % ID/g | Kidney uptake (S180-bearing mice; 30 min): 2.17 ± 0.43 % ID/g | Liver uptake (S180-bearing mice; 30 min): 0.39 ± 0.12 % ID/g | Lung uptake (S180-bearing mice; 30 min): 0.78 ± 0.12 % ID/g | Muscle uptake (S180-bearing mice; 30 min): 0.37 ± 0.08 % ID/g | Small intestine uptake (S180-bearing mice; 30 min): 0.44 ± 0.08 % ID/g | Spleen uptake (S180-bearing mice; 30 min): 0.28 ± 0.05 % ID/g | Stomach uptake (S180-bearing mice; 30 min): 0.64 ± 0.25 % ID/g | Tumor uptake (S180-bearing mice; 30 min): 1.49 ± 0.08 % ID/g | Tumor/blood ratio (S180-bearing mice; 30 min): 1.91 | Tumor/muscle ratio (S180-bearing mice; 30 min): 4.03 | Blood uptake (S180-bearing mice; 60 min): 0.12 ± 0.03 % ID/g | Bone uptake (S180-bearing mice; 60 min): 0.15 ± 0.02 % ID/g | Heart uptake (S180-bearing mice; 60 min): 0.22 ± 0.04 % ID/g | Kidney uptake (S180-bearing mice; 60 min): 1.05 ± 0.21 % ID/g | Liver uptake (S180-bearing mice; 60 min): 0.23 ± 0.03 % ID/g | Lung uptake (S180-bearing mice; 60 min): 0.23 ± 0.04 % ID/g | Muscle uptake (S180-bearing mice; 60 min): 0.17 ± 0.07 % ID/g | Small intestine uptake (S180-bearing mice; 60 min): 0.21 ± 0.14 % ID/g | Spleen uptake (S180-bearing mice; 60 min): 0.15 ± 0.03 % ID/g | Stomach uptake (S180-bearing mice; 60 min): 0.25 ± 0.07 % ID/g | Tumor uptake (S180-bearing mice; 60 min): 1.00 ± 0.17 % ID/g | Tumor/blood ratio (S180-bearing mice; 60 min): 8.33 | Tumor/muscle ratio (S180-bearing mice; 60 min): 5.88 | Blood uptake (S180-bearing mice; 120 min): 0.04 ± 0.02 % ID/g | Bone uptake (S180-bearing mice; 120 min): 0.13 ± 0.04 % ID/g | Heart uptake (S180-bearing mice; 120 min): 0.22 ± 0.05 % ID/g | Kidney uptake (S180-bearing mice; 120 min): 1.23 ± 0.26 % ID/g | Liver uptake (S180-bearing mice; 120 min): 0.28 ± 0.04 % ID/g | Lung uptake (S180-bearing mice; 120 min): 0.17 ± 0.05 % ID/g | Muscle uptake (S180-bearing mice; 120 min): 0.17 ± 0.05 % ID/g | Small intestine uptake (S180-bearing mice; 120 min): 0.14 ± 0.06 % ID/g | Spleen uptake (S180-bearing mice; 120 min): 0.17 ± 0.06 % ID/g | Stomach uptake (S180-bearing mice; 120 min): 0.31 ± 0.06 % ID/g | Tumor uptake (S180-bearing mice; 120 min): 0.68 ± 0.23 % ID/g | Tumor/blood ratio (S180-bearing mice; 120 min): 17.00 | Tumor/muscle ratio (S180-bearing mice; 120 min): 4.00 | Tumor/liver ratio (S180-bearing mice): 3.82 | SPECT imaging: aggregation at the tumor sites (tumor-bearing mice): evident aggregation at the tumor sites | SPECT imaging: concentration in kidney (tumor-bearing mice): relatively high concentration in kidney | SPECT imaging: uptake in other organs (tumor-bearing mice): relatively low
